These results are taken from patent publication US20030171276A1, “Preventives and remedies for chronic hepatitis” (priority 1999, published 2003).

In this test the test system is recombinant E2 protein binding to CD81 expressed in Jurkat cells. Nature of the test: Inhibition of binding of recombinant E2 protein to Jurkat cells (FACScan). The class given is cell-based, HCV. The settings on record: 1 μg recombinant E2 protein preincubated with 10 μL of 1 mg/mL solution, room temperature 1 hour; FIG. 14. As to the method:
An oligopeptide capable of binding to HCV E2 antigen is reacted with the HCV E2 antigen to study whether or not binding of CD81 expressed in Jurkat cells purchased from DAINIPPON PHARMACEUTICAL CO., LTD. to the HCV E2 antigen is inhibited. By the study, whether or not the selected oligopeptide inhibits adhesion of the HCV E2 antigen to CD81-positive cells can be estimated. The inhibitory activity for adhesion of CD81 to the IICV E2 antigen was assayed in accordance with the literature. The concrete description will be given hereinbelow.
The Jurkat cells were prepared in the same manner as in item (1), and suspended in WB so as to have a concentration of 4×10^6 cells/mL, to give a Jurkat cell suspension. […]
Hereinafter, in the same manner as in the item (1) above, the resulting product was reacted with an FITC-labeled anti-mouse IgG1 antibody, and thereafter the reaction mixture was suspended in 0.2 mL of a 10% neutral buffered formalin solution. As to the resulting product, E2 protein bound to Jurkat cells was analyzed by using FACScan.
One microgram of the recombinant E2 protein, and 10 μL of the TAPA148, bLF or bLF443 solution obtained in item (4) above were added to a 6 mm rounded-bottom tube and, and WB was then added thereto, to give 50 μL of a mixture. […] As to the resulting suspension, E2 protein bound to Jurkat cells was analyzed by using FACScan.

As for “bLF443: Bovine lactoferrin-derived peptide, SEQ ID NO: 24 (LDCVLRPTEGYLAVAVVKKANEGLTWNSLKDKKSCH; Synthesized peptide bLF443 which is derived from bovine lactoferrin)”, the “inhibitory action of binding of E2 protein to Jurkat cells” value is reported as “inhibitory action of binding of the E2 protein”.
The entry for “TAPA148: Human CD81-derived peptide, SEQ ID NO: 23 (TFHETLDCCGSSTLTALTTSVLKNNLCPSGSNIISNLFKTDCHQKIDDLTSGK; Synthesized peptide TAPA148 which is derived from human CD81)” is “inhibitory action of binding of E2 protein”.
